Structures are written as SMILES. ≈ marks a conversion by molar mass, not a printed value.

Among the test systems are Staphylococcus xylosus; Leuconostoc lactis; Staphylococcus aureus MR; Candida albicans; Bacillus subtilis 168; Escherichia coli ML-35; Bacillus megaterium Bm11.
Common to all, as to test: ≥ marks a high value that may be exact or a test limit, other limits are often not marked, values filed in µg/mL are converted to µM
Assay [1] concerns Escherichia coli DH5alpha.
The subject of assay [2] is Escherichia coli NCTC 10418.
Assay [3] has as its system Staphylococcus aureus ATCC 12493.
Assay [4] has as its system Enterococcus faecalis NCTC 12697.
For assay [5], the system named is Staphylococcus aureus ATCC 49476.
The test system of assay [6] is Pseudomonas aeruginosa ATCC 27853.
Assay [7] deals with Escherichia coli ATCC 25726.
The subject of assay [8] is Staphylococcus aureus ATCC 25923.
Assay [9] concerns Salmonella enterica subsp. enterica serovar Typhimurium ATCC 14028.

Take `CC(C)C[C@H](NC(=O)[C@H](CC(C)C)NC(=O)[C@H](CC(C)C)NC(=O)[C@H](CC(C)C)NC(=O)[C@H](CC(C)C)NC(=O)[C@H](CCCCN)NC(=O)[C@H](CCCCN)NC(=O)[C@@H](N)CCCCN)C(=O)N[C@@H](CCCCN)C(=O)N[C@@H](CCCCN)C(=O)N[C@@H](CCCCN)C(=O)O` [KKKLLLLLKKK]: the MIC in assay [1] was 16 µM (≈ 21.6 µg/mL); with Staphylococcus xylosus, 8 µM (≈ 10.8 µg/mL).

In the case of `CC[C@H](C)[C@H](NC(=O)[C@H](CO)NC(=O)[C@H](CO)NC(=O)[C@@H](NC(=O)[C@H](CC(C)C)NC(=O)CN)C(C)C)C(=O)NCC(=O)N[C@@H](CCCCN)C(=O)N[C@@H](C)C(=O)N[C@@H](CC(C)C)C(=O)NCC(=O)NCC(=O)N[C@@H](CC(C)C)C(=O)N[C@@H](CC(C)C)C(=O)N[C@H](C(=O)N[C@@H](CC(=O)O)C(=O)N[C@H](C(=O)N[C@H](C(=O)N[C@@H](CCCCN)C(=O)N[C@@H](CO)C(=O)N[C@@H](CCCCN)C(=O)NCC(=O)N[C@@H](CCC(N)=O)C(=O)N1CCC[C@H]1C(=O)N[C@@H](C)C(=O)O)C(C)C)C(C)C)C(C)C` [GLVSSIGKALGGLLVDVVKSKGQPA], in the assay with Leuconostoc lactis, the MIC turned out to be 20.9 µM (≈ 50 µg/mL).

Take `CC(C)C[C@H](NC(=O)[C@H](C)NC(=O)[C@H](Cc1c[nH]c2ccccc12)NC(=O)[C@H](CCCCN)NC(=O)[C@H](CC(C)C)NC(=O)[C@@H](N)Cc1ccccc1)C(=O)N[C@@H](CCCCN)C(=O)N[C@H](C(=O)N[C@@H](C)C(=O)N[C@@H](C)C(=O)N[C@@H](CCCCN)C(N)=O)C(C)C` [FLKWALKVAAK]: the MIC in [2], in [3] and in assay [4] was ≥ 512 µM in each case.

In the case of `CC[C@H](C)[C@H](NC(=O)[C@H](CC(C)C)NC(=O)[C@H](CCCN=C(N)N)NC(=O)[C@H](Cc1cnc[nH]1)NC(=O)[C@H](C)NC(=O)[C@H](C)NC(=O)[C@H](CCCCN)NC(=O)CNC(=O)[C@H](C)NC(=O)[C@H](CO)NC(=O)[C@H](Cc1ccccc1)NC(=O)[C@H](CC(C)C)NC(=O)CNC(=O)CNC(=O)[C@@H](NC(=O)[C@@H](NC(=O)[C@H](Cc1cnc[nH]1)NC(=O)[C@H](Cc1cnc[nH]1)NC(=O)[C@@H](NC(=O)[C@@H](N)Cc1ccccc1)[C@@H](C)CC)[C@@H](C)CC)[C@@H](C)CC)C(=O)N[C@@H](CCCN=C(N)N)C(=O)N[C@@H](CCCN=C(N)N)C(=O)N[C@@H](CCCN=C(N)N)C(=O)N[C@@H](CCCN=C(N)N)C(=O)N[C@@H](CCCN=C(N)N)C(=O)O` [FIHHIIGGLFSAGKAAHRLIRRRRR], the MIC in assay [5] was 21.8 µM (≈ 64 µg/mL); in assay [6], 87.1 µM (≈ 256 µg/mL); with Staphylococcus aureus MR it was 21.8 µM (≈ 64 µg/mL); with Candida albicans it was 43.5 µM (≈ 128 µg/mL).

Regarding `CC[C@H](C)[C@H](NC(=O)CN)C(=O)N[C@@H](Cc1ccccc1)C(=O)N[C@@H](CO)C(=O)N[C@@H](CCCCN)C(=O)N[C@@H](Cc1ccccc1)C(=O)NCC(=O)NCC(=O)N[C@@H](CCCCN)C(=O)N[C@@H](C)C(=O)N[C@H](C(=O)N[C@@H](CCCCN)C(=O)N[C@@H](CC(N)=O)C(=O)N[C@@H](CC(C)C)C(=O)N[C@@H](Cc1ccccc1)C(=O)N[C@H](C(=O)N[C@@H](CCCCN)C(=O)NCC(=O)N[C@@H](C)C(=O)N[C@@H](CCCCN)C(=O)N[C@@H](CC(N)=O)C(=O)N[C@H](C(=O)NCC(=O)N[C@@H](CCCCN)C(=O)N[C@@H](CCC(=O)O)C(=O)N[C@H](C(=O)NCC(=O)N[C@@H](CCSC)C(=O)N[C@@H](CC(=O)O)C(=O)N[C@H](C(=O)N[C@H](C(=O)N[C@@H](CCCN=C(N)N)C(=O)N[C@H](C(=O)NCC(=O)N[C@H](C(=O)N[C@@H](CC(=O)O)C(=O)N[C@H](C(=O)N[C@@H](C)C(=O)NCC(=O)N[C@H]1CSSC[C@@H](C(=O)O)NC(=O)[C@H](CCC(=O)O)NC(=O)CNC(=O)[C@H](CCCCN)NC(=O)[C@H]([C@@H](C)CC)NC(=O)[C@H](CCCCN)NC1=O)C(C)C)[C@@H](C)CC)[C@@H](C)O)[C@@H](C)CC)C(C)C)C(C)C)[C@@H](C)CC)[C@@H](C)CC)[C@@H](C)CC` [GIFSKFGGKAIKNLFIKGAKNIGKEVGMDVIRTGIDVAGCKIKGEC], the minimal inhibitory concentration (MIC) in assay [7] and in assay [8] was 13 µM (≈ 62.5 µg/mL) each time.

With `CC[C@H](C)[C@H](NC(=O)[C@H](CS)NC(=O)[C@H](CCSC)NC(=O)[C@H](C)NC(=O)[C@H](CCCN=C(N)N)NC(=O)[C@@H](N)CC(C)C)C(=O)N[C@@H](CCCCN)C(=O)N[C@@H](Cc1c[nH]c2ccccc12)C(=O)N[C@@H](Cc1c[nH]c2ccccc12)C(=O)N[C@@H](CO)C(=O)NCC(=O)N[C@@H](CCCCN)C(=O)N[C@@H](Cc1cnc[nH]1)C(=O)N1CCC[C@H]1C(=O)N[C@@H](CCCCN)C(=O)O` [LRAMCIKWWSGKHPK], in the assay on Bacillus subtilis 168, the MIC is 7 µM (≈ 12.9 µg/mL).

For `CC[C@H](C)[C@H](NC(=O)[C@H](CCCCN)NC(=O)[C@H](CC(C)C)NC(=O)[C@H](Cc1ccccc1)NC(=O)[C@H](CCCCN)NC(=O)[C@H](CCCCN)NC(=O)[C@H](Cc1ccccc1)NC(=O)[C@H](C)NC(=O)[C@H](CCCCN)NC(=O)[C@H](CCCCN)NC(=O)[C@H](Cc1ccccc1)NC(=O)[C@H](CC(C)C)NC(=O)[C@H](CCCCN)NC(=O)[C@H](Cc1c[nH]c2ccccc12)NC(=O)[C@H](CCCCN)NC(=O)CN)C(=O)N[C@@H](CC(C)C)C(=O)N[C@@H](C)C(=O)N[C@@H](CS)C(=O)O` [GKWKLFKKAFKKFLKILAC], in the assay on Bacillus subtilis 168, the MIC is 3.2 µM (≈ 7.35 µg/mL).

On to `CC(C)C[C@H](NC(=O)[C@H](CCCN=C(N)N)NC(=O)[C@H](CCCN=C(N)N)NC(=O)[C@H](Cc1ccccc1)NC(=O)[C@H](CCCN=C(N)N)NC(=O)CN)C(=O)NCC(=O)N[C@@H](CCCN=C(N)N)C(=O)N[C@@H](CCCCN)C(=O)N[C@@H](Cc1ccccc1)C(=O)N[C@@H](CCCCN)C(=O)N[C@@H](CCCCN)C(=O)N[C@@H](CC(C)C)C(=O)N[C@@H](Cc1ccccc1)C(=O)N[C@@H](CCCCN)C(=O)N[C@@H](CCCCN)C(=O)N[C@@H](Cc1ccc(O)cc1)C(=O)NCC(=O)N1CCC[C@H]1C(=O)O` [GRFRRLGRKFKKLFKKYGP], for which the MIC came to 4 µM (≈ 9.53 µg/mL) against Escherichia coli ML-35, 8 µM (≈ 19.1 µg/mL) in [9], 8 µM (≈ 19.1 µg/mL) with Bacillus megaterium Bm11 and 8 µM (≈ 19.1 µg/mL) in assay [8].

Turning to `CC[C@H](C)[C@H](NC(=O)[C@H](CC(C)C)NC(=O)[C@H](CCCN=C(N)N)NC(=O)[C@H](Cc1cnc[nH]1)NC(=O)[C@H](CCCN=C(N)N)NC(=O)[C@H](C)NC(=O)[C@H](CCCCN)NC(=O)CNC(=O)[C@H](C)NC(=O)[C@H](CO)NC(=O)[C@H](Cc1ccccc1)NC(=O)[C@H](CC(C)C)NC(=O)CNC(=O)CNC(=O)[C@@H](NC(=O)[C@@H](NC(=O)[C@H](Cc1cnc[nH]1)NC(=O)[C@H](Cc1cnc[nH]1)NC(=O)[C@@H](NC(=O)[C@@H](N)Cc1ccccc1)[C@@H](C)CC)[C@@H](C)CC)[C@@H](C)CC)C(=O)N[C@@H](CCCN=C(N)N)C(=O)N[C@@H](CCCN=C(N)N)C(=O)N[C@@H](CCCN=C(N)N)C(=O)N[C@@H](CCCN=C(N)N)C(=O)N[C@@H](CCCN=C(N)N)C(=O)O` [FIHHIIGGLFSAGKARHRLIRRRRR], the MIC in assay [5] is ≥ 169 µM; in assay [6], > 169 µM; against Staphylococcus aureus MR it was ≥ 169 µM; against Candida albicans, 42.3 µM (≈ 128 µg/mL).

Usually MIC stands for the least concentration at which growth counts as inhibited.

The values are drawn from DBAASP.
